Reference: ChEMBL document CHEMBL4627289, “Design, synthesis and evaluation of unnatural peptides as T1R2/T1R3 PAMs” (Bioorg Med Chem Lett, 2020)

biological target: T1R2/T1R3 (Homo sapiens) (UniProt Q8TE23+Q7RTX0); assay: Positive allosteric modulation of human TIR2/TIR3 expressed in PEAKrapid cells assessed as potentiation of sucrose-induced intracellular calcium influx by measuring sucrose EC50 at 30 uM measured for 120 secs by fluorescence based assay relative to FEMA4774; type: functional, cell-based

Compound | Efficacy
CC(C)(CC(=O)Nc1cncc(C(=O)O)c1N)NC(=O)[C@@H](N)C1CCCCC1 | 96%
CC(C)(CC(=O)Nc1cncc(C(=O)O)c1N)NC(=O)C1(N)CCCCC1 | 59%
CC(C)(CC(=O)Nc1cncc(C(=O)O)c1N)NC(=O)C1CCNC1 (centres undefined) | 55%
CCCCCCCCCCCC(=O)NC(C)(C)CC(=O)Nc1cncc(C(=O)O)c1N | 50%
CC(C)(CC(=O)Nc1cncc(C(=O)O)c1N)NC(=O)C[C@@H]1CCNC1 | 56%
CCCCCCCC(=O)NC(C)(C)CC(=O)Nc1cncc(C(=O)O)c1N | 57%
CC(C)(CC(=O)Nc1cncc(C(=O)O)c1N)NC(=O)C(C)(C)C | 58%
CC(C)(CC(=O)Nc1cncc(C(=O)O)c1N)NC(=O)[C@H](N)C1CCCCC1 | 59%
CC(C)(C)CC(=O)NC(C)(C)CC(=O)Nc1cncc(C(=O)O)c1N | 64%
CC(C)(CC(=O)Nc1cncc(C(=O)O)c1N)NC(=O)[C@@H]1CCC[C@H](N)C1 | 57%
CC(C)[C@H](N)C(=O)NC(C)(C)CC(=O)Nc1cncc(C(=O)O)c1N | 61%
CC(C)(CC(=O)Nc1cncc(C(=O)O)c1N)NC(=O)CC[C@@H](N)Cc1ccccc1 | 54%
CC(C)(CC(=O)Nc1cncc(C(=O)O)c1N)NC(=O)C1(c2ccccc2)CC1 | 54%
CC[C@H](C)[C@H](NC(=O)[C@@H](N)C1CCCCC1)C(=O)NC(C)(C)CC(=O)Nc1cncc(C(=O)O)c1N | 76%
CC(C)(CC(=O)Nc1cncc(C(=O)O)c1N)NC(=O)C[C@H]1CCNC1 | 52%
CC(C)(CC(=O)Nc1cncc(C(=O)O)c1N)NC(=O)C1CCNCC1 | 56%
CC(C)(CC(=O)Nc1cncc(C(=O)O)c1N)NC(=O)[C@@H](N)c1ccccc1 | 61%
CC(C)(CC(=O)Nc1cncc(C(=O)O)c1N)NC(=O)C1CCCCC1 | 71%
CC(C)(CC(=O)Nc1cncc(C(=O)O)c1N)NC(=O)CC1CCCCC1 | 85%
CC(C)C[C@H](N)C(=O)NC(C)(C)CC(=O)Nc1cncc(C(=O)O)c1N | 73%

Compound | Efficacy
CC(C)(CC(=O)Nc1cncc(C(=O)O)c1N)NC(=O)[C@@H](N)CC1CCCCC1 | 57%
CC(C)C(=O)NC(C)(C)CC(=O)Nc1cncc(C(=O)O)c1N | 54%
CC[C@H](C)[C@H](NC(=O)[C@@H](NC(=O)OC(C)(C)C)C1CCCCC1)C(=O)NC(C)(C)CC(=O)Nc1cncc(C(=O)O)c1N | 84%
CCCCCC(=O)NC(C)(C)CC(=O)Nc1cncc(C(=O)O)c1N | 65%
CC(C)(CC(=O)Nc1cncc(C(=O)O)c1N)NC(=O)[C@H]1CC[C@H](N)CC1 | 55%
CC(C)(CC(=O)Nc1cncc(C(=O)O)c1N)NC(=O)c1ccc(N)cc1 | 56%
CC(C)(CC(=O)Nc1cncc(C(=O)O)c1N)NC(=O)CC1(CN)CCCCC1 | 80%
CC(C)C[C@H](NC(=O)[C@@H](N)C1CCCCC1)C(=O)NC(C)(C)CC(=O)Nc1cncc(C(=O)O)c1N | 77%
CC(C)(CC(=O)Nc1cncc(C(=O)O)c1N)NC(=O)c1ccccc1 | 50%
CC(C)CC(=O)NC(C)(C)CC(=O)Nc1cncc(C(=O)O)c1N | 60%
CC(C)(CC(=O)Nc1cncc(C(=O)O)c1N)NC(=O)CC1CCCC1 | 79%
CC(C)(CC(=O)Nc1cncc(C(=O)O)c1N)NC(=O)[C@@H](NC(=O)[C@@H](N)C1CCCCC1)C1CCCCC1 | 92%
CC(C)(CC(=O)Nc1cncc(C(=O)O)c1N)NC(=O)c1cccc2c1CCCC2 | 73%
CCCCCCC(=O)NC(C)(C)CC(=O)Nc1cncc(C(=O)O)c1N | 59%
CC(C)(CC(=O)Nc1cncc(C(=O)O)c1N)NC(=O)c1cccc(N)c1 | 56%
CC(C)(CC(=O)Nc1cncc(C(=O)O)c1N)NC(=O)[C@H]1CC[C@@H](N)CC1 | 58%
CC(C)(CC(=O)Nc1cncc(C(=O)O)c1N)NC(=O)CCC1CCCCC1 | 65%
CCCCCCCC/C=C\CCCCCCCC(=O)NC(C)(C)CC(=O)Nc1cncc(C(=O)O)c1N | 55%
CC(C)C[C@H](NC(=O)[C@@H](NC(=O)OC(C)(C)C)C1CCCCC1)C(=O)NC(C)(C)CC(=O)Nc1cncc(C(=O)O)c1N | 85%
